Values after ≈ are worked out from the molar mass of the structure shown. Like-named read-outs stand apart in the source and are kept apart here. Non-standard residues stand in square brackets, D forms with d. Residues, ends and D or L forms follow the SMILES beside them. d1Nal = N[C@H](Cc1cccc2ccccc12)C(=O)O
What was measured:
[1] = test system: hemizygous Tg.AC mice; experiment: Mouse dermal carcinogenicity study (TPA in XMP.629 acetate gel placebo); format: in vivo
Experimental: XMP.629 was evaluated in a dermal carcinogenicity study to determine whether repeated dermal treatment with tetradeconyl phorbol acetate (TPA) in a XMP.629 acetate gel placebo formulation increased the incidence of skin tumors in hemizygous Tg.AC mice. […] Group 1 was treated with XMP.629 acetate gel placebo alone. A sixth group (Group 2) was treated with TPA dissolved in acetone at a dose level of 1.25 μg per 150 μL application and served as a reference standard. The animals were dosed via dermal application three times per week (e.g., Monday, Wednesday and Friday) for 12 consecutive weeks.
All animals were observed twice daily for moribundity and mortality. A hands-on examination was performed weekly at the time the animals were weighed on Day 1 and weekly thereafter. At that time, the animals were examined for clinical evidence of toxicity, carcinogenicity, and/or irritation at the site of application. […] The number of tumors at the site of application (SOA) and non-site of application (non-SOA) was recorded for each animal each week. At the end of the study (Day 85), the surviving animals were euthanized with CO2 asphyxiation. A necropsy was not performed.

[2] = in vivo; details: both, rat, plasma, po, 10 mg/kg, Bioavailability, 10 mg/kg oral gavage in distilled water
[3] = physchem
Experimental: In additional studies, a variety of formulations of XMP.629 were tested for stability under various temperatures, such as 25° C., 40° C., and 50° C., and at various time points, such as 0.5, 1, and 2 months.
The solubility of XMP.629 acetate in various solvents was also evaluated.
Solubility studies were conducted using a variety of solvent systems and/or skin penetration enhancers.

[4] = 10 mg/kg oral gavage
[5] = test system: E. coli; details: for MBC: agent alone
[6] = test system: Staphylococcus aureus; details: for MBC: agent alone
[7] = test system: albino hairless guinea pigs Crl:IAF(HA)-hrBR (Outbred); experiment: Photosafety study: primary irritancy, phototoxicity, contact hypersensitivity, photoallergy; format: in vivo, guinea pig; details: single topical administration and UVR; XMP.629 up to 10 mg/mL (1.0%)
Experimental: XMP.629 was evaluated for photoallergic potential administered topically to hairless guinea pigs. Primary irritancy, phototoxicity (photoirritancy) and contact hypersensitivity were also evaluated in these studies.
Male CrI:IaF(HA)-hrBR (Outbred) albino hairless guinea pigs were assigned to 7 groups, five guinea pigs per group as outlined below.
XMP.629 was formulated as a gel. The phototoxicity comparator article was 8-methoxypsoralen (8-MOP) in methanol at concentrations of 0.1, 0.3 and 1.0 mg/mL. The contact hypersensitivity and photoallergy comparator article was 3,3′,4′,5′-tetrachlorosalicy/anilide (TCSA) in acetone:corn oil (4:1, v/v) at challenge concentrations of 0 (Vehicle), 10, and 30 mg/mL. The reagent and reagent vehicle were Freund's complete adjuvant (FCA) and sterile water for injection, USP, respectively.
The formulation administration and ultraviolet radiation (UVR) exposure regimens for each group in the study were as follows.
For all phases of the study, test articles, test article vehicles, comparator articles and comparator article vehicles were administered (0.3 ml) using a Hilltop chamber affixed to the guinea pig with dental dam overlaid with a Velcro® wrap for approximately 2.0 hours per administration.
Primary irritancy potential of the test articles and test article vehicles was evaluated in Group 1 guinea pigs. Three chambers (one per formulation dosage) were attached to the dorsal skin along the midline. After the administration period the chamber patches were removed and the application sites were gently wiped.
Cutaneous phototoxicity potential of the test articles and test article vehicles was evaluated in Group 2 guinea pigs. Group 3 guinea pigs were used as a comparator group with elicitation of phototoxicity with 8-MOP. Three chambers (one per formulation dosage) were attached to the dorsal skin along the midline and occluded. After the administration period the chamber patches were removed and the application sites were gently wiped. After wiping, Group 2 and 3 guinea pigs were exposed to solar-simulated UVR for approximately 2.25 hours.
For induction of contact hypersensitivity and photoallergy, a nuchal area of skin approximately 2.5 cm^2 was defined by intradermal injections with a formulation of sterile water and FCA in guinea pigs in Groups 4 through 7 under isoflurane/oxygen anesthesia. This skin area was then tape stripped five times. Formulations were topically administered via chambers as described in the study design table using one chamber attached to the nuchal area. After removal of the chambers the application sites were gently wiped and the nuchal site of Group 6 and 7 guinea pigs was exposed to UVR as above. Appropriate procedures for guinea pigs (with the exception of injection with FCA) were repeated once daily on Days 3, 5, 8, 10 and 12 of the induction phase.
On Day 22 (contact hypersensitivity and photoallergy challenge), formulations were topically applied to appropriate sites on guinea pigs in Groups 4 through 7 as described above. Three chambers (one per formulation dosage) were attached to the dorsal skin along the midline and occluded. The chambers were then removed and the application sites were gently wiped. Guinea pigs in Groups 6 and 7 were then exposed to UVR as above.
Observations for general appearance and clinical signs were made weekly throughout the study. […] Body weights were recorded at initiation of dosing for each phase, weekly thereafter and at sacrifice. […]

[8] = test system: S. aureus; experiment: Comparison of XMP.629 with standard topical agents (MIC90/MBC); format: cell-based, Staphylococcus aureus; details: Staphylococcus aureus
Experimental: Control tubes containing only water or formulation buffer were prepared for each isolate. Initial growth controls were determined by removing 10 μL from the water control tube and diluting it by 100 fold. From this dilution, 10 μL was used for inoculation and for spreading over the surface onto Laked Blood Agar (LBA) (Anaerobe Systems, Morgan Hill, Calif.) plates. The tubes and plates were incubated in an anaerobic atmosphere at 37° C. for 48 h. […] MBC50 and 90 values represent where 50 and 90%, respectively, of the tested strain's MBC values are equal to or less than the indicated concentration.

[9] = 0.3 mg/kg intravenous
[10] = rat, 0.3 mg/kg intravenous
Experimental: Whole body autoradiography studies measured the concentration of tritium in tissues at several time points following dosing. From these concentrations, area under the concentration vs. time curve (AUC) was calculated as a measure of overall exposure (see Table 25).

[11] = test system: Proteus mirabilis; experiment: microbe, parasite or virus in culture; format: cell-based; details: Proteus mirabilis 29852; read-out: Minimum Inhibitory Concentrations
Experimental: (§1) Acne vulgaris may involve a microbial consortium. Although P. acnes may be a prominent member of such a consortium, other uncharacterized bacteria may also participate. The microbial activity of XMP.629 as an acetate gel as described in Example 5 and other commonly used antibiotics was evaluated against a panel of human pathogens using standardized NCCLS protocols. […] Lesser potency was observed against the gram-negative organisms B. fragilis, B. cepacia, P. mirabilis and S. marcescens, which are often refractory to many antimicrobial compounds.

[12] = test system: Serratia marcescens; experiment: microbe, parasite or virus in culture; format: cell-based; details: Serratia marcescens 13880; read-out: Minimum Inhibitory Concentrations
Experimental: as §1

[13] = test system: Escherichia coli; experiment: microbe, parasite or virus in culture; format: cell-based; details: Escherichia coli, Escherichia coli 0111:B4; read-out: Minimum Inhibitory Concentrations
Experimental: as §1

[14] = test system: Klebsiella pneumoniae; experiment: microbe, parasite or virus in culture; format: cell-based; details: Klebsiella pneumoniae, read-out: Minimum Inhibitory Concentrations
Experimental: as §1

[15] = test system: Pseudomonas aeruginosa; experiment: microbe, parasite or virus in culture; details: read-out: Minimum Inhibitory Concentrations, Pseudomonas aeruginosa 27853
[16] = test system: P. acnes strain (ATCC 6919); details: P. acnes ATCC 6919 passaged in the drug; level of the resistant culture sought/obtained
[17] = test system: P. acnes; experiment: microbe, parasite or virus in culture; details: Cutibacterium acnes, clindamycin/erythromycin sensitive strain UP2022
[18] = test system: P. acnes; experiment: microbe, parasite or virus in culture; details: Cutibacterium acnes
Experimental: An in vitro assessment of antibiotic activity in XMP.629 and various known antibiotics against a representative panel of bacterial strains associated with acne was conducted. A broth dilution methodology was employed using guidelines established by National Committee for Clinical Laboratory Standards (NCCLS) for anaerobic organisms to establish an antibacterial profile for XMP.629. Assays to determine the minimal bactericidal concentrations (MBC) and minimal inhibitory concentration (MIC) were conducted for XMP.629 and other known antibiotics.
Inoculum from a representative panel of bacterial strains associated with acne, such as P. acnes, P. avidum, P. granulosum, and Staphylococcus epidermis was prepared by suspending approximately 5-10 isolated bacterial colonies in pre-reduced MicroScan® Inoculum Water (Dade Behring, Deerfield, Ill.), and growing the bacterial suspension to log phase (approximately 48 hrs). An inoculum of between 1-5×10^6/mL was achieved by adding 100 μL of the suspension to 25 mL Brain Heart Infusion Broth (BHI) (Anaerobe Systems, Morgan Hill, Calif.).
A stock solution of XMP.629 dissolved in water at a concentration of 4.0 mg/mL was prepared. Dilute solutions of XMP.629 at concentrations ranging from about 1.25 to about 160 μg/mL were made in either water or formulation buffer (130 mM sodium chloride, 0.2% P103 (poloxamer 333), and 0.10% EDTA, pH 7.3).
Control tubes containing only water or formulation buffer were prepared for each isolate. Initial growth controls were determined by removing 10 μL from the water control tube and diluting it by 100 fold. From this dilution, 10 μL was used for inoculation and for spreading over the surface onto Laked Blood Agar (LBA) (Anaerobe Systems, Morgan Hill, Calif.) plates. The tubes and plates were incubated in an anaerobic atmosphere at 37° C. for 48 h.

[19] = test system: P. acnes; details: strains UPC686 and UP2022; with XMP.629

For `CCCCCCCCCCCCCC(=O)O[C@@H]1[C@@H](C)[C@@]2(O)[C@@H](C=C(CO)C[C@]3(O)C(=O)C(C)=C[C@@H]23)[C@@H]2C(C)(C)[C@]12OC(C)=O` [TPA, tetradeconyl phorbol acetate], the tumor development ([1]; 10 μg TPA per application, a single female) was “one latent and one actual papilloma”, the “tumor development, females” value ([1]; 20 μg TPA per application) was 4/4 and the “tumor development, males” value ([1]; 20 μg TPA per application) was 2/5. The tumor development ([1]; 2.5 and 5.0 μg per application in XMP.629 acetate gel placebo) was “did not result in tumor development”.
`CC(C)C[C@@H](NC(=O)[C@H](N)CCCCN)C(=O)N[C@H](Cc1ccccc1)C(=O)N[C@H](CCCNC(=N)N)C(=O)N[C@H](Cc1cccc2ccccc12)C(=O)N[C@H](CCC(N)=O)C(=O)N[C@H](C)C(=O)N[C@H](CCCCN)C(=O)N[C@H](Cc1cccc2ccccc12)C(N)=O` [XMP.629 acetate] (H-[dK][dL][dF][dR][d1Nal][dQ][dA][dK][d1Nal]-NH2) showed a bioavailability [2] of about 0.001%, a solubility ([3]; ethanol, 200 proof) of under 2200 µg/mL and a solubility ([3]; propylene glycol) of 10600 to 12500 µg/mL. The solubility ([3]; purified water) was under 1660 µg/mL, the solubility ([3]; sodium acetate buffer, pH 6) was over 1640 µg/mL and the solubility ([3]; transcutol P) was under 170 µg/mL. The “Bioavailability, 5% glucose formulation versus distilled water” value [4] was about 4 fold, the “peak concentrations, 5% glucose formulation versus distilled water” value [4] was about 4 fold and the “time of peak concentrations following dosing” value [4] was 10 to 20 min.
In the case of Neomycin, the “MBC (antibiotic alone)” value ([5]; E. coli 4104 LF) is reported as 1 µg/mL and the “MBC (antibiotic alone)” value ([6]; Staphylococcus aureus 342U-116) is reported as 1 µg/mL.
In the case of `COc1c2occc2cc2ccc(=O)oc12` [8-MOP, 8-methoxypsoralen, reference compound], the phototoxicity [7] is reported as “produced skin reactions indicative of cutaneous phototoxicity”.
In the case of `CC1COc2c(N3CCN(C)CC3)c(F)cc3c(=O)c(C(=O)O)cn1c23` (stereo not drawn) [Ofloxacin], the “MBC (antibiotic alone)” value ([5]; E. coli 4104 LF) is reported as “≦0.125 μg/mL” and the “MBC (antibiotic alone)” value ([6]; Staphylococcus aureus 342U-116) is reported as 1 µg/mL (≈ 2.77 µM).
`C/C(=C\C(=O)OCCCCCCCCC(=O)O)C[C@@H]1OC[C@H](C[C@@H]2O[C@H]2[C@@H](C)[C@H](C)O)[C@@H](O)[C@H]1O` [Mupirocin] showed an MIC90 [8] of 4 µg/mL (≈ 7.99 µM).
In the case of `CC1(C)S[C@@H]2[C@H](NC(=O)[C@H](N)c3ccccc3)C(=O)N2[C@H]1C(=O)O` [Ampicillin], the “MBC (antibiotic alone)” value ([5]; E. coli 4104 LF) is reported as 32 µg/mL (≈ 91.6 µM) and the “MBC (antibiotic alone)” value ([6]; Staphylococcus aureus 342U-116) is reported as 8 µg/mL (≈ 22.9 µM).
For Penicillin, the MBC ([5]; E. coli 706U2-1081) was over 10 µg/mL, the MBC ([5]; E. coli 4104 LF) was over 10 µg/mL and the MBC ([6]; Staphylococcus aureus 076U-550) was under 0.06 µg/mL. It also gave an MBC ([6]; Staphylococcus aureus 230U-579) of over 10 µg/mL, an MBC ([6]; Staphylococcus aureus 314U-148) of over 10 µg/mL and an MBC ([6]; Staphylococcus aureus 342U-116) of over 10 µg/mL. It also gave an MBC ([6]; Staphylococcus aureus 15031-1857) of over 10 µg/mL.
With `CC(=O)OCC1=C(C(=O)O)N2C(=O)[C@@H](NC(=O)Cc3cccs3)[C@H]2SC1` [Cephalothin] the “MBC (antibiotic alone)” value ([6]; Staphylococcus aureus 342U-116) was 1 µg/mL (≈ 2.52 µM).
For `CC(C)C[C@@H](NC(=O)[C@H](N)CCCCN)C(=O)N[C@H](Cc1ccccc1)C(=O)N[C@H](CCCNC(=N)N)C(=O)N[C@H](Cc1cccc2ccccc12)C(=O)N[C@H](CCC(N)=O)C(=O)N[C@H](C)C(=O)N[C@H](CCCCN)C(=O)N[C@H](Cc1cccc2ccccc12)C(N)=O` [[^3H]-labeled XMP.629] (H-[dK][dL][dF][dR][d1Nal][dQ][dA][dK][d1Nal]-NH2), the “Central compartment volume of distribution” value [9] was about 0.12 L/kg, the alpha half-life [9] was about 2 min and the beta half-life [9] was about 45 min. For the same compound, the clearance [9] was about 6 mL/min/kg, the “plasma concentrations by 24 hours following dosing” value [9] was “approximately 0.005 μg/mL” and the terminal half-life [9] was about 480 min. The average half-life ([9]; three compartment model) was “approximately 0.24 hours”, the AUC0-tlast ([10]; Adrenal) was 64.98 μg equivalents * hr/g and the AUC0-tlast ([10]; Blood) was 0.24 μg equivalents * hr/g. It also gave an AUC0-tlast ([10]; Bone marrow) of 82.65 μg equivalents * hr/g, an AUC0-tlast ([10]; Cervical lymph node) of 86.07 μg equivalents * hr/g and an AUC0-tlast ([10]; Eye uveal tract) of 1.14 μg equivalents * hr/g. For the same compound, the AUC0-tlast ([10]; Kidney) was 20.20 μg equivalents * hr/g, the AUC0-tlast ([10]; Liver) was 191.86 μg equivalents * hr/g and the AUC0-tlast ([10]; Lung) was 29.25 μg equivalents * hr/g. The AUC0-tlast ([10]; Popliteal lymph node) was 165.30 μg equivalents * hr/g, the AUC0-tlast ([10]; Renal medulla high) was 19.83 μg equivalents * hr/g and the AUC0-tlast ([10]; Spleen) was 60.94 μg equivalents * hr/g. The AUC0-tlast ([10]; Thyroid) was 23.38 μg equivalents * hr/g.
For `CO/N=C(\C(=O)N[C@@H]1C(=O)N2C(C(=O)O)=C(COC(N)=O)CS[C@H]12)c1ccco1` [Cefuroxime], the “MBC (antibiotic alone)” value ([5]; E. coli 4104 LF) was 8 µg/mL (≈ 18.9 µM).
For `C[C@H]1c2cccc(O)c2C(=O)C2=C(O)[C@]3(O)C(=O)C(C(N)=O)=C(O)[C@@H](N(C)C)[C@@H]3[C@@H](O)[C@@H]21` [Doxycycline], the MIC [11] was 64 µg/mL (≈ 144 µM), the MIC [12] was 8 µg/mL (≈ 18 µM) and the MIC [13] was 2 µg/mL (≈ 4.5 µM). It also gave an MIC ([14]; Klebsiella pneumoniae 19645) of 32 µg/mL (≈ 72 µM), an MIC ([14]; Klebsiella pneumoniae 29011) of 32 µg/mL (≈ 72 µM) and an MIC [15] of 32 µg/mL (≈ 72 µM).
`CCC[C@@H]1C[C@@H](C(=O)N[C@@H]([C@H]2O[C@H](SC)[C@H](O)[C@@H](O)[C@H]2O)[C@H](C)Cl)N(C)C1` [Clindamycin] gave an MIC/MBC [16] of over 64 µg/mL, an MIC [17] of under 1 µg/mL and an MIC90 ([18]; read-out: MIC90 of Standard Topical Agents) of 16 µg/mL (≈ 37.6 µM). The MIC ([18]; read-out: MIC of clindamycin resistant strains) was over 64 µg/mL and the FIC [19] was 2.

— patent publication US20050148495A1, “Methods and materials including for treating acne” (priority 2003, published 2005)
